Experimental data: the NIST ThermoML archive (doi:10.1021/je050317k)
Numbers after ± are expanded uncertainties. One block for each compound: values may come before it.

Conditions: Liquid

SMILES: Cl/C=C\CCl [(Z)-1,3-dichloro-1-propene]
- vapor or sublimation pressure (333.15 K): 22.61 ± 0.25 kPa
- vapor or sublimation pressure (353.15 K): 47.29 ± 0.42 kPa

SMILES: C1CO1 [oxirane]
- vapor or sublimation pressure (298.15 K): 174.71 ± 1.6 kPa
- vapor or sublimation pressure (348.15 K): 766.7 ± 5 kPa

- vapor or sublimation pressure (333.15 K): 103.15 ± 1.3 kPa
- vapor or sublimation pressure (373.1 K): 316.61 ± 2.2 kPa
SMILES: C=CCCC=C [1,5-hexadiene]

- vapor or sublimation pressure (373.1 K): 5.506 ± 0.12 kPa
- vapor or sublimation pressure (433.15 K): 53.23 ± 0.37 kPa
SMILES: Oc1ccccc1 [phenol]

- vapor or sublimation pressure (333.15 K): 49.16 ± 0.53 kPa
- vapor or sublimation pressure (393.15 K): 297.37 ± 2.1 kPa
- vapor or sublimation pressure (453.15 K): 1096.9 ± 7 kPa
SMILES: CC#N [acetonitrile]

SMILES: CC(Cl)CCl (stereo unspecified) [1,2-dichloropropane]
- vapor or sublimation pressure (333.15 K): 30.14 ± 0.27 kPa
- vapor or sublimation pressure (353.15 K): 61.07 ± 0.44 kPa

SMILES: OCCCCO [1,4-butanediol]
- vapor or sublimation pressure (383.15 K): 0.664 ± 0.064 kPa

- vapor or sublimation pressure (333.15 K): 37.73 ± 0.44 kPa
- vapor or sublimation pressure (393.15 K): 249.59 ± 1.8 kPa
- vapor or sublimation pressure (453.15 K): 939.9 ± 6 kPa
SMILES: CC(=O)OC(C)C [1-methylethyl ethanoate]

- vapor or sublimation pressure (298.15 K): 352.39 ± 2.8 kPa
- vapor or sublimation pressure (348.15 K): 1212.7 ± 7.9 kPa
SMILES: CC(C)C [2-methylpropane]

- vapor or sublimation pressure (373.1 K): 3.573 ± 0.091 kPa
- vapor or sublimation pressure (433.15 K): 32.02 ± 0.24 kPa
SMILES: CC(=O)c1ccccc1 [acetophenone]

SMILES: C=CCCl [3-chloro-1-propene]
- vapor or sublimation pressure (333.15 K): 164.65 ± 1.6 kPa
- vapor or sublimation pressure (373.1 K): 489.25 ± 3.4 kPa

SMILES: O=C1CCCO1 [γ-butyrolactone]
- vapor or sublimation pressure (383.15 K): 5.15 ± 0.087 kPa

SMILES: C=CCl [chloroethene]
- vapor or sublimation pressure (273.1 K): 172 ± 1.8 kPa
- vapor or sublimation pressure (313.15 K): 601.5 ± 4 kPa
